Assay results from paper PMC6600542 (Molecules, 2019).

Key:
normal human plasma [1] = assay: APTT clotting assay, normal human plasma; type: biochemical
Description: (§1) For the PT assay, thromboplastin-D was reconstituted according to the manufacturer’s directions and warmed to 37 °C. […] After incubation for 4 min at 37 °C, clotting was initiated by adding 100 μL of prewarmed 25 mM CaCl2 and the time to clotting was noted. […] To determine the in vitro effect on the APTT of deficient human plasmas, the APTT assay was repeated, using human plasmas deficient of factor VII (FVII), factor IX (FIX), FXI, or factor XII (FXII). […] The positive control used in APTT and PT assays was rivaroxaban, a clinically used FXa inhibitor. Under the conditions reported, rivaroxaban doubled the APTT and PT at concentrations of 0.123 ± 0.003 µM and 0.193 ± 0.043 µM, respectively.

normal human plasma [2] = assay: PT clotting assay, normal human plasma; type: biochemical; conditions: normal human plasma (text)
Description: as §1

normal human plasma [3] = conditions: cited from earlier work

SMILES | effect on the APTT (normal human plasma [1]; normal human plasma, highest concentration tested of 33.3 mM) | concentration to double the APTT (normal human plasma [1]; normal human plasma (text)) | concentration to double the PT (normal human plasma [2]) | effect on TT (normal human plasma [3])
O=S(=O)(O)CCO [isethionic acid] | did not affect the APTT | – | – | –
O=C(NC[C@H]1CN(c2ccc(N3CCOCC3=O)cc2)C(=O)O1)c1ccc(Cl)s1 [rivaroxaban] | – | 0.123 ± 0.003 µM | 0.193 ± 0.043 µM | no effect on TT
